Assay results from patent US10894941B2, “Microfluidic multi-well-based cell culture testing device” (QUANTA MATRIX CO,. LTD., priority 2013, dated 2021).

Tests used:
Type in all cases: cell-based
E. coli ATCC 25922 = experiment: double infection imaging in MAC chip, antibiotic susceptibility; conditions: gentamicin 32 μg/mL, erythromycin 8 μg/mL; 3 h incubation; 2% agarose
Method: (§1) The experimental conditions are as follows: • Strains • E. coli ATCC 25922 (rod-shaped strain) • E. faecalis ATCC 29212 (spherical strain) • Antibiotics • Gentamicin (concentration: 32 μg/mL)
(§2) […] At this time, the coexistence of the rod-shaped bacteria and the spherical bacteria was confirmed. It could also be confirmed whether double infection with the bacteria occurred.

E. faecalis ATCC 29212 = experiment: as above; conditions: gentamicin 32 μg/mL, erythromycin 8 μg/mL; 3 h incubation; 2% agarose
Method: as §1, §2

E. faecalis strain = experiment: antibiotic susceptibility testing (MIC) using the MAC chip; conditions: agarose, 37° C., 4-h incubation
Method: For this experiment, an E. faecalis solution was homogenized with liquid agarose and was injected into the chip. The agarose was gelled at room temperature. Thereafter, liquid penicillin as an antibiotic was injected into the well spaces. The chip was then incubated at an incubator at 37° C. and the results were observed after 4-h incubation.
The MIC of penicillin (2 μg/ml) could be obtained in 4 hours. In contrast, according to micro-dilution testing (MDT), a much longer time (18 hours) was consumed to obtain the MIC of penicillin.

## CC[C@H]1OC(=O)[C@H](C)[C@@H](O[C@H]2C[C@@](C)(OC)[C@@H](O)[C@H](C)O2)[C@H](C)[C@@H](O[C@@H]2O[C@H](C)C[C@H](N(C)C)[C@H]2O)[C@](C)(O)C[C@@H](C)C(=O)[C@H](C)[C@@H](O)[C@]1(C)O [Erythromycin]
E. coli ATCC 25922
  susceptibility: Susceptible to E. faecalis ATCC 29212 only
E. faecalis ATCC 29212
  susceptibility: Susceptible to E. faecalis ATCC 29212 only

## Gentamicin
E. coli ATCC 25922
  susceptibility: MICs are in the susceptible range for both strains
E. faecalis ATCC 29212
  susceptibility: MICs are in the susceptible range for both strains

## penicillin
E. faecalis strain
  MIC: 2 µg/mL
